# Values quoted from earlier work in PubChem BioAssay AID1259409 (Chemical Carcinogenesis Research Information System (CCRIS), 2018).
# System: rodent chemically induced tumor inhibition, incidence and multiplicity
# Assay: CCRIS tumor inhibitor studies
smiles,measurement,setting,value
O=c1oc2c(O)c(O)cc3c(=O)oc4c(O)c(O)cc1c4c23,"tumour outcome (control, treated, inhibition, significance)","Carcinogen: 7,12-DIMETHYLBENZ[A]ANTHRACENE, 57-97-6, Dose [Inhibitor]: 0, 2000 PPM IN DIET FROM 1 WK PRIOR TO CARCINOGEN TREATMENT TO 3 D POST CARCINOGEN TREATMENT (STUDY DURATION: 42 WK), Route [Inhibitor]: ORAL, Species: FISH, Strain/Sex: RAINBOW TROUT/ MALE, FEMALE, Target Tissue: Type of Lesion: STOMACH: TUMOR, Dose [Carcinogen]: 5.5 PPM IN WATER FOR 1 HR, Promoter: NONE USED","88%, 78%, 11%, p<0.05"
same,"tumour outcome (control, treated, inhibition, significance)","Carcinogen: 7,12-DIMETHYLBENZ[A]ANTHRACENE, 57-97-6, Dose [Inhibitor]: 0, 2000 PPM IN DIET FROM 3 WK PRIOR TO CARCINOGEN TREATMENT TO 3 D POST CARCINOGEN TREATMENT (STUDY DURATION: 42 WK), Route [Inhibitor]: ORAL, Species: FISH, Strain/Sex: RAINBOW TROUT/ MALE, FEMALE, Target Tissue: Type of Lesion: LIVER: TUMOR, Dose [Carcinogen]: 4.16 PPM IN WATER FOR 1 HR, Promoter: NONE USED","7%, 22%, -214%, p<0.001"
same,"tumour outcome (control, treated, inhibition, significance)","Carcinogen: 7,12-DIMETHYLBENZ[A]ANTHRACENE, 57-97-6, Dose [Inhibitor]: 0, 2000 PPM IN DIET FROM 3 WK PRIOR TO CARCINOGEN TREATMENT TO 3 D POST CARCINOGEN TREATMENT (STUDY DURATION: 42 WK), Route [Inhibitor]: ORAL, Species: FISH, Strain/Sex: RAINBOW TROUT/ MALE, FEMALE, Target Tissue: Type of Lesion: SWIM BLADDER: TUMOR, Dose [Carcinogen]: 4.16 PPM IN WATER FOR 1 HR, Promoter: NONE USED","14%, 61%, -336%, p<0.001"
same,"tumour outcome (control, treated, inhibition, significance)","Carcinogen: 7,12-DIMETHYLBENZ[A]ANTHRACENE, 57-97-6, Dose [Inhibitor]: O, 2000 PPM IN DIET FROM 3 WK PRIOR TO CARCINOGEN TREATMENT TO 3D POST CARCINOGEN TREATMENT (STUDY DURATION: 42 WK), Route [Inhibitor]: ORAL, Species: FISH, Strain/Sex: RAINBOW TROUT/ MALE, FEMALE, Target Tissue: Type of Lesion: STOMACH: TUMOR, Dose [Carcinogen]: 4.16 PPM IN WATER FOR 1 HR, Promoter: NONE USED","97%, 94%, 3%, not significant"
same,"tumour outcome (control, treated, inhibition, significance)","Carcinogen: (+/-)-1BETA,2ALPHA-DIHYDROXY-3ALPHA,4ALPHA-EPOXY-1,2,3,4-TETRAHYDROBENZO[A]PYRE NE, 78919-11-6, Dose [Inhibitor]: 0, 300 NMOL (TOTAL DOSE) APPLIED 10 MIN PRIOR TO CARCINOGEN DOSE INJECTED AS 1/7, 2/7, AND 4/7 OF THE TOTAL ON DAYS 1, 8, Route [Inhibitor]: INTRAPERITONEAL, Species: MOUSE, Strain/Sex: ICR/MALE, FEMALE, Target Tissue: Type of Lesion: LUNG: TUMOR, Dose [Carcinogen]: 50 NMOL (TOTAL DOSE) INJECTED IN DOSES OF 1/7, 2/7, AND 4/7 ON DAYS 1, 8, AND 15 OF LIFE, RESPECTIVELY, Promoter: NONE USED","93%, 86%, 8%, not significant"
same,"tumour outcome (control, treated, inhibition, significance)","Carcinogen: (+/-)-7BETA,8ALPHA-DIHYDROXY-9ALPHA,10ALPHA-EPOXY-7,8,9,10-TETRAHYDROBENZO[A]PYR ENE, 58917-67-2, Dose [Inhibitor]: 0, 300 NMOL (TOTAL DOSE) APPLIED 10 MIN PRIOR TO CARCINOGEN DOSE INJECTED AS 1/7, 2/7, AND 4/7 OF THE TOTAL ON DAYS 1, 8, Route [Inhibitor]: INTRAPERITONEAL, Species: MOUSE, Strain/Sex: ICR/MALE, FEMALE, Target Tissue: Type of Lesion: LUNG: TUMOR, Dose [Carcinogen]: 15 NMOL (TOTAL DOSE) INJECTED IN DOSES OF 1/7, 2/7, AND 4/7 ON DAYS 1, 8, AND 15 OF LIFE, RESPECTIVELY, Promoter: NONE USED","86%, 76%, 12%, not significant"
same,"tumour outcome (control, treated, inhibition, significance)","Carcinogen: (+/-)-7BETA,8ALPHA-DIHYDROXY-9ALPHA,10ALPHA-EPOXY-7,8,9,10-TETRAHYDROBENZO[A]PYR ENE, 58917-67-2, Dose [Inhibitor]: 0, 1250 NMOL IN 200 µL ACETONE:METHANOL (45:55) ONCE APPLIED 5 MIN PRIOR TO CARCINOGEN DOSE (STUDY DURATION: 21 WK), Route [Inhibitor]: DERMAL, Species: MOUSE, Strain/Sex: CD-1/FEMALE, Target Tissue: Type of Lesion: SKIN: TUMOR, Dose [Carcinogen]: 200 NMOL IN ACETONE:DMSO (90:10) ONCE, Promoter: 12-O-TETRADECANOYLPHORBOL-13-ACETATE, 16561-29-8","62%, 50%, 19%, not significant"
same,"tumour outcome (control, treated, inhibition, significance)","Carcinogen: (+/-)-7BETA,8ALPHA-DIHYDROXY-9ALPHA,10ALPHA-EPOXY-7,8,9,10-TETRAHYDROBENZO[A]PYR ENE, 58917-67-2, Dose [Inhibitor]: 0, 2500 NMOL IN 200 µL ACETONE:METHANOL (45:55) ONCE APPLIED 5 MIN PRIOR TO CARCINOGEN DOSE (STUDY DURATION: 21 WK), Route [Inhibitor]: DERMAL, Species: MOUSE, Strain/Sex: CD-1/FEMALE, Target Tissue: Type of Lesion: SKIN: TUMOR, Dose [Carcinogen]: 200 NMOL IN ACETONE:DMSO (90:10) ONCE, Promoter: 12-O-TETRADECANOYLPHORBOL-13-ACETATE, 16561-29-8","62%, 43%, 31%, not significant"
same,"tumour outcome (control, treated, inhibition, significance)","Carcinogen: (+/-)-7BETA,8ALPHA-DIHYDROXY-9ALPHA,10ALPHA-EPOXY-7,8,9,10-TETRAHYDROBENZO[A]PYR ENE, 58917-67-2, Dose [Inhibitor]: 0, 2500 NMOL IN 200 µL ACETONE:METHANOL (45:55) ONCE APPLIED 30 MIN PRIOR TO CARCINOGEN DOSE (STUDY DURATION: 21 WK), Route [Inhibitor]: DERMAL, Species: MOUSE, Strain/Sex: CD-1/FEMALE, Target Tissue: Type of Lesion: SKIN: TUMOR, Dose [Carcinogen]: 200 NMOL IN ACETONE:DMSO (90:10) ONCE, Promoter: 12-O-TETRADECANOYLPHORBOL-13-ACETATE, 16561-29-8","53%, 33%, 38%, not significant"
same,"tumour outcome (control, treated, inhibition, significance)","Carcinogen: (+/-)-7BETA,8ALPHA-DIHYDROXY-9ALPHA,10ALPHA-EPOXY-7,8,9,10-TETRAHYDROBENZO[A]PYR ENE, 58917-67-2, Dose [Inhibitor]: 0, 2500 NMOL IN 200 µL ACETONE:METHANOL (45:55) ONCE APPLIED 120 MIN PRIOR TO CARCINOGEN DOSE (STUDY DURATION: 21 WK), Route [Inhibitor]: DERMAL, Species: MOUSE, Strain/Sex: CD-1/FEMALE, Target Tissue: Type of Lesion: SKIN: TUMOR, Dose [Carcinogen]: 200 NMOL IN ACETONE:DMSO (90:10) ONCE, Promoter: 12-O-TETRADECANOYLPHORBOL-13-ACETATE, 16561-29-8","63%, 43%, 32%, not significant"
same,"tumour outcome (control, treated, inhibition, significance)","Carcinogen: AZOXYMETHANE, 25843-45-2, Dose [Inhibitor]: 0, 4000 PPM IN DIET BEGINNING PRIOR TO CARCINOGEN DOSE AND CONTINUING FOR DURATION OF STUDY (STUDY DURATION: 54 WK), Route [Inhibitor]: ORAL, Species: RAT, Strain/Sex: F344/MALE, Target Tissue: Type of Lesion: COLON: ADENOCARCINOMA, Dose [Carcinogen]: 15 MG/KG 1/WK FOR 2 WK, Promoter: NONE USED","72%, 64%, 11%, not calculated"
same,"tumour outcome (control, treated, inhibition, significance)","Carcinogen: AZOXYMETHANE, 25843-45-2, Dose [Inhibitor]: 0, 4000 PPM IN DIET BEGINNING PRIOR TO CARCINOGEN DOSE AND CONTINUING FOR DURATION OF STUDY (STUDY DURATION: 54 WK), Route [Inhibitor]: ORAL, Species: RAT, Strain/Sex: F344/MALE, Target Tissue: Type of Lesion: COLON: ADENOMA, Dose [Carcinogen]: 15 MG/KG 1/WK FOR 2 WK, Promoter: NONE USED","14%, 8%, 43%, not calculated"
